Measurements from US9814711B2, “Antitubercular composition comprising rifampicin, isoniazid, ethambutol and pyrazinamide and its process of preparation” (priority 2013, dated 2017).
Where a name gives a salt, the structure may show the parent alone.

How the values were obtained:
[1] = Stability: active ingredient content of coated tablets, initial and after aging at 40° C. and 75% relative humidity; assay type: physicochemical
[2] = Dissolution time test (pH 6.8 phosphate buffer, 900 mL, paddle 100 rpm, HPLC); assay type: physicochemical; details: for % of dissolved actives at 45 min after beginning the Dissolution time test: pH 6.8 phosphate buffer 900 mL paddle 100 rpm
Method: The dissolution time of the actives can be measured by introducing one tablet (weight 1090 mg) in 900 mL of water at 37° C. buffered to pH 6.8 with a phosphate buffer wherein the medium is mixed with a paddle at 100 rpm. The phosphate buffer is prepared by dissolving 7 g of anhydrous dibasic sodium phosphate in 5 L of water, and adjusting with phosphoric acid to a pH of 6.8. The percentage of the actives dissolved at a given time can be measured by high performance liquid chromatography (HPLC).

[3] = coated tablet of Example 1, aging 1 month at 40° C. and 75% relative humidity
[4] = coated tablet of Example 1, aging 2 months at 40° C. and 75% relative humidity
[5] = coated tablet of Example 1, initial
[6] = coated tablet of Example 1, aged 1 month at 40° C. and 75% relative humidity
[7] = coated tablet of Example 1, aged 2 months at 40° C. and 75% relative humidity

SMILES | percentage of active ingredient measured relative to the target quantity [1, 3] | percentage of active ingredient measured relative to the target quantity [1, 4] | percentage of active ingredient measured relative to the target quantity [1, 5] | % of dissolved actives at 45 min after beginning the Dissolution time test [2, 6] | % of dissolved actives at 45 min after beginning the Dissolution time test [2, 7] | % of dissolved actives at 45 min after beginning the Dissolution time test [2, 5] | cumulative percentage of active released ([2]; tablet of Example 1, 5 min) | cumulative percentage of active released ([2]; tablet of Example 1, 10 min) | cumulative percentage of active released ([2]; tablet of Example 1, 15 min) | cumulative percentage of active released ([2]; tablet of Example 1, 20 min) | cumulative percentage of active released ([2]; tablet of Example 1, 30 min) | cumulative percentage of active released ([2]; tablet of Example 1, 45 min) | cumulative percentage of active released ([2]; tablet of Example 1, 60 min)
CC[C@@H](CO)NCCN[C@@H](CC)CO [Ethambutol HCl, Ethambutol Hydrochloride] | 100.3% | 101.4% | 100.6% | 100% | 99% | 100% | 84 | 99 | 99 | 99 | 99 | 99 | 99
NC(=O)c1cnccn1 [Pyrazinamide] | 101.2% | 100.5% | 101.3% | 102% | 102% | 102% | 90 | 101 | 102 | 102 | 102 | 102 | 102
NNC(=O)c1ccncc1 [Isoniazid] | 97.8% | 98.20% | 100.0% | 98% | 100% | 98% | 86 | 99 | 100 | 100 | 100 | 100 | 100
